Ends that are not written are not given here.
Assays:
HEK-PR1 cells [1] = test: Potentiation of carbachol-evoked Ca2+ signals by 8-Br-cAMP in HEK-PR1 cells; format: cell-based; settings: n = 3; for Peak [Ca2+]c: 8-Br-cAMP 10 mM, then carbachol 20 µM; for pEC50 / Δ[Ca2+]c (maximal potentiated increase): carbachol 20 µM
Description: (§1) Results are shown as mean±s.e.m.

EPAC1 and EPAC2 = test: Effect of EPAC antagonist ESI-09 on Ca2+ signals in HEK-PR1 cells; format: cell-based
Description: (§2) HEK-PR1 cells (∼10^5 PTH1R/cell) were cultured as described previously ([Tovey et al., 2008]). Measurements of [Ca^2+]c in cell populations were performed as previously described ([Tovey et al., 2008]). Briefly, confluent cultures of HEK-PR1 grown in 96-well plates were loaded with fluo 4 by incubation with fluo 4AM (2 µM, 20°C) in HEPES-buffered saline (HBS). HBS had the following composition (in mM): NaCl 135, KCl 5.9, MgCl2 1.2, CaCl2 1.5, HEPES 11.6 and glucose 11.5, pH 7.3. After 1 h, loading medium was replaced with HBS, and after 45 min cells were used at 20°C for measurements of [Ca^2+]c. A fluorescence plate-reader equipped to allow automated fluid additions (FlexStation 3, Molecular Devices, Sunnyvale, CA, USA) was used to record fluorescence at intervals of 1.44 s (excitation at 485 nm; emission at >525 nm) ([Tovey et al., 2006]).

PKA = test: Effect of PKA inhibitor H89 on PTH(1-34)-evoked cAMP and potentiated Ca2+ signals; format: cell-based; settings: H89 10 µM, 20 min; for intracellular cAMP in H89-treated cells relative to matched control cells: mean±s.e.m., n = 3, SEM
Description: These assays were performed under conditions that replicate those used for measurements of [Ca^2+]c. HEK-PR1 cells were grown in 24-well plates until ∼90% confluent, [^3H]adenine (2 µCi per well) was then added to the culture medium. After 2 h at 37°C in 5% CO2, the medium was removed, cells were washed with HBS, and used for experiments in HBS at 20°C. Because many cells extrude cAMP into the extracellular medium ([Copsel et al., 2011]), reactions were terminated by first removing the medium and then adding ice-cold trichloroacetic acid (5% v/v, 1 ml). After 30 min on ice, [^3H]cAMP was separated from other ^3H-adenine nucleotides by sequential column chromatography on Dowex cation exchange resin and alumina as previously described ([Pantazaka et al., 2013]). The activity of the eluates was determined by liquid scintillation counting and amounts of [^3H]cAMP are expressed as percentages of the sum of the activities recovered in the [^3H]cAMP, [^3H]ADP and [^3H]ATP fractions.

adenylyl cyclase = test: Potentiation of carbachol-evoked Ca2+ signals by NKH477 in HEK-PR1 cells; format: cell-based; settings: n = 3; for Peak [Ca2+]c: NKH477 200 µM, then carbachol 20 µM; for pEC50 / Δ[Ca2+]c (maximal potentiated increase): carbachol 20 µM
Description: as §1

PTH1R [2] = target: T1, PTH1R (Homo sapiens, UniProt Q03431); test: Potentiation of carbachol-evoked Ca2+ signals by PTH analogues (fluo 4, HEK-PR1 cell populations); format: cell-based; settings: then carbachol 20 µM in Ca2+-free HBS, n = 3, read-out: peak [Ca2+]c pEC50 (converted)
T1 construct: expressed in transfected cells
T1 sequence (Q03431 27-593): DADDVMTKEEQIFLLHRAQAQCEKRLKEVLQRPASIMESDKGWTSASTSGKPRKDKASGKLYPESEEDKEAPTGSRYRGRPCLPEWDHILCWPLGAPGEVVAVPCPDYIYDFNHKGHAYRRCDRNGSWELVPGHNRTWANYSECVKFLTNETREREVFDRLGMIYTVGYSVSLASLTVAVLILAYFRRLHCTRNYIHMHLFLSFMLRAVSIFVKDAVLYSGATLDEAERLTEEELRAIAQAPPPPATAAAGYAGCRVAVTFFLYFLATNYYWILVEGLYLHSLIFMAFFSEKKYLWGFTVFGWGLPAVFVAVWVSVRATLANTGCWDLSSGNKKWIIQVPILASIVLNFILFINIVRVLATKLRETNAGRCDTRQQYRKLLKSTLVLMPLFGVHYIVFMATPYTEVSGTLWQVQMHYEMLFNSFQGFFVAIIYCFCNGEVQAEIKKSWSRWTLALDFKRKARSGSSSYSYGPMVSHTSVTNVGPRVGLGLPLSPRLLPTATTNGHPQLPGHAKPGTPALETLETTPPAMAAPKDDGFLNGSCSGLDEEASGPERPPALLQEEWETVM
Description: Briefly, confluent cultures of HEK-PR1 grown in 96-well plates were loaded with fluo 4 by incubation with fluo 4AM (2 µM, 20°C) in HEPES-buffered saline (HBS). […] After 1 h, loading medium was replaced with HBS, and after 45 min cells were used at 20°C for measurements of [Ca^2+]c.
Concentration–effect relationships were fitted to Hill equations using Prism version 5 (GraphPad, San Diego, CA, USA). Results are shown as mean±s.e.m. […] All statistical comparisons are therefore between experiments performed in parallel and analysed using paired Student's t-tests.

PTH1R [3] = target: T1, PTH1R; test: Intracellular cAMP accumulation ([3H]adenine labelling) in HEK-PR1 cells; format: cell-based; settings: n = 3, read-out: cAMP pEC50 (converted)
Description: These assays were performed under conditions that replicate those used for measurements of [Ca^2+]c. HEK-PR1 cells were grown in 24-well plates until ∼90% confluent, [^3H]adenine (2 µCi per well) was then added to the culture medium. After 2 h at 37°C in 5% CO2, the medium was removed, cells were washed with HBS, and used for experiments in HBS at 20°C. […] The activity of the eluates was determined by liquid scintillation counting and amounts of [^3H]cAMP are expressed as percentages of the sum of the activities recovered in the [^3H]cAMP, [^3H]ADP and [^3H]ATP fractions.

HEK-PR1 cells [4] = test: Cytosolic IP3 measured with FRET sensor in single HEK-PR1 cells; format: cell-based; settings: carbachol 1 mM; mean±s.e.m., n = 17 coverslips; SEM
Description: A FRET sensor based on the IP3-binding core of IP3R1 ([Tovey and Taylor, 2013]) was used to measure cytosolic concentrations of IP3 in single HEK-PR1 cells under conditions similar to those used for measurements of [Ca^2+]c. The plasmid and properties of the sensor were as described previously ([Tovey and Taylor, 2013]). The sensor comprises the IP3-binding core attached through short linkers to enhanced cyan fluorescent protein (CFP) at its N-terminus and enhanced yellow fluorescent protein (YFP) at its C-terminus (see inset to Fig. 3A). IP3 binding causes a decrease in FRET. […] An Olympus IX71 inverted fluorescence microscope with a 40× objective and a 440 nm/520 nm dual band-pass dichroic mirror was used to record fluorescence from widefield images after excitation at 440 nm (to excite CFP). A Luca EMCCD camera (Andor Technology, Belfast, UK) was used to collect emitted fluorescence simultaneously at 1-s intervals from YFP (520–550 nm) and CFP (455–485 nm) using a Cairn Optosplit 2 image-splitter fitted with a 495-nm dichroic mirror. After correction for background fluorescence (determined from cytosolic areas of non-transfected cells), FRET ratios are presented as the ratio of CFP emission to YFP emission, so that the ratio increases (decreased FRET) after IP3 binding.

PTH1R [5] = settings: Table S1, properties from the literature; ref Cupp et al., 2013 and others listed in Table S1; cited from earlier work
PTH1R [6] = system: PTH1R; parameters: method as in 2 sources, one per row (each row's own in cited_ref): ref Cupp et al., 2013 and others listed in Table S1 ||| ref supplementary material Table S1; settings: Table S1, properties from the literature; ref Cupp et al., 2013 and others listed in Table S1; cited from earlier work
PTH1R [7] = target: T1, PTH1R; test: Ca2+ signals directly evoked by PTH analogues alone in HEK-PR1 cells; format: cell-based; settings: highest concentrations of the analogue, no carbachol (Fig. 1F)
Description: as §2

[8] = PTH analogue 1 min, mean ± s.e.m., SEM

Nc1ncnc2c1nc(Br)n2[C@@H]1O[C@@H]2COP(=O)(O)O[C@H]2[C@H]1O [8-Br-cAMP]
Peak [Ca2+]c (HEK-PR1 cells [1]; 5 min): 386 ± 21 nM
Peak [Ca2+]c (HEK-PR1 cells [1]; 30 min): 222 ± 24 nM
pEC50 (HEK-PR1 cells [1]; 8-Br-cAMP 5 min): 3.5 ± 0.1 /M
Δ[Ca2+]c (maximal potentiated increase) (HEK-PR1 cells [1]; 8-Br-cAMP 5 min): 207 ± 7 nM
pEC50 (HEK-PR1 cells [1]; 8-Br-cAMP 30 min): 3.7 ± 0.1 /M
Δ[Ca2+]c (maximal potentiated increase) (HEK-PR1 cells [1]; 8-Br-cAMP 30 min): 113 ± 5 nM

CC(C)(C)c1cc(C(=O)C(C#N)=NNc2cccc(Cl)c2)no1 [ESI-09, 3-[5-(tert-butyl)isoxazol-3-yl]-2-[2-(3-chlorophenyl)hydrazono]-3-oxopropanenitril]
effect on Ca2+ signals evoked by carbachol alone (EPAC1 and EPAC2; ESI-09 10 µM, 5 min): no significant effect
effect on concentration-dependent potentiation by PTH(1-34) of carbachol-evoked Ca2+ signals (EPAC1 and EPAC2; ESI-09 10 µM, 5 min): no significant effect
effect on small Ca2+ signals directly evoked by high concentrations of PTH(1-34) (EPAC1 and EPAC2; ESI-09 10 µM, 5 min): no significant effect
effect on potentiation of carbachol-evoked Ca2+ signals by 8-Br-cAMP (EPAC1 and EPAC2; ESI-09 10 µM, added 5 min before 8-Br-cAMP): unaffected
effect on carbachol-evoked Ca2+ release (EPAC1 and EPAC2; higher concentrations of ESI-09 (50 µM) or more prolonged treatments (15 min)): directly inhibited carbachol-evoked Ca^2+ release

Cl.Cl.O=S(=O)(NCCNCC=Cc1ccc(Br)cc1)c1cccc2cnccc12 [H89, N-[2-[[3-(4-bromophenyl)-2-propenyl]amino]ethyl]-5-isoquinolinesulfonamide dihydrochloride]
effect of PKA inhibition on acute and sustained effects of PTH(1-34), NKH477 or 8-Br-cAMP on carbachol-evoked Ca2+ signals (PKA): no effect
intracellular cAMP in H89-treated cells relative to matched control cells (PKA; 3 µM PTH(1-34) for 1 min): 95±0.1%
intracellular cAMP in H89-treated cells relative to matched control cells (PKA; 3 µM PTH(1-34) for 60 min): 98±0.2%

C=C[C@@]1(C)CC(=O)[C@]2(O)[C@@]3(C)[C@@H](O)CCC(C)(C)[C@@H]3C(OC(=O)CCN(C)C)[C@H](OC(C)=O)[C@@]2(C)O1.Cl (stereo partly drawn) [NKH477, N,N-dimethyl-(3R,4aR,5S,6aS,10S,10aR,10bS)-5-(acetyloxy)-3-ethenyldodecahydro-10,10b-dihydroxy-3,4a,7,7,10a-pentamethyl-1-oxo-1H-naphtho[2,1-b]pyran-6-yl ester β-alanine hydrochloride]
Peak [Ca2+]c (adenylyl cyclase; 2 min): 331 ± 20 nM
Peak [Ca2+]c (adenylyl cyclase; 30 min): 256 ± 12 nM
pEC50 (adenylyl cyclase; NKH477 2 min): 5.0 ± 0.3 /M
Δ[Ca2+]c (maximal potentiated increase) (adenylyl cyclase; NKH477 2 min): 257 ± 3 nM
pEC50 (adenylyl cyclase; NKH477 5 min): 5.0 ± 0.1 /M
Δ[Ca2+]c (maximal potentiated increase) (adenylyl cyclase; NKH477 5 min): 225 ± 9 nM
pEC50 (adenylyl cyclase; NKH477 15 min): 5.0 ± 0.1 /M
Δ[Ca2+]c (maximal potentiated increase) (adenylyl cyclase; NKH477 15 min): 155 ± 10 nM
pEC50 (adenylyl cyclase; NKH477 30 min): 6.0 ± 0.1 /M
Δ[Ca2+]c (maximal potentiated increase) (adenylyl cyclase; NKH477 30 min): 124 ± 24 nM

CC[C@H](C)[C@H](NC(=O)[C@H](CCC(=O)O)NC(=O)[C@H](CO)NC(=O)[C@@H](NC(=O)[C@@H](N)Cc1ccc(O)cc1)C(C)C)C(=O)N[C@@H](CCC(N)=O)C(=O)N[C@@H](CC(C)C)C(=O)N[C@@H](CCSC)C(=O)N[C@@H](Cc1c[nH]cn1)C(=O)N[C@@H](CC(N)=O)C(=O)N[C@@H](CC(C)C)C(=O)NCC(=O)N[C@@H](CCCCN)C(=O)N[C@@H](Cc1c[nH]cn1)C(=O)N[C@@H](CC(C)C)C(=O)N[C@@H](CC(N)=O)C(=O)N[C@@H](CO)C(=O)N[C@@H](CCSC)C(=O)N[C@@H](CCC(=O)O)C(=O)N[C@@H](CCCNC(=N)N)C(=O)N[C@H](C(=O)N[C@@H](CCC(=O)O)C(=O)N[C@@H](Cc1c[nH]c2ccccc12)C(=O)N[C@@H](CC(C)C)C(=O)N[C@@H](CCCNC(=N)N)C(=O)N[C@@H](CCCCN)C(=O)N[C@@H](CCCCN)C(=O)N[C@@H](CC(C)C)C(=O)N[C@@H](CCC(N)=O)C(=O)N[C@@H](CC(=O)O)C(=O)N[C@H](C(=O)N[C@@H](Cc1c[nH]cn1)C(=O)N[C@@H](CC(N)=O)C(=O)N[C@@H](Cc1ccccc1)C(=O)O)C(C)C)C(C)C [Tyr1PTH(1-34)]
EC50 (PTH1R [2]; [8]): 200 nM
EC50 (PTH1R [2]; PTH analogue 30 min): 39.8 nM
EC50 (PTH1R [3]; PTH analogue 1 min): 794 nM
EC50 (PTH1R [3]; PTH analogue 30 min): 200 nM

C[N+](C)(C)CCOC(N)=O [carbachol, Carbamylcholine chloride]
transfected cells responding with discernible FRET changes (HEK-PR1 cells [4]): 52±2%

PTH(3-34): PTH analogue not used in this study, included for comparison with earlier work (SEIQLMHNLGKHLNSMERVEWLRKKLQDVHNF; Parathyroid hormone; UniProt P01270 34-65, looked up, fragment)
Gq (PLC) (PTH1R [5]): Inactive
Signalling to AC from internalized PTH1R (PTH1R [6]): No

SVSEIQLMHNLGKHLNSMERVEWLRKKLQDV [PTH(1-31), analogue of PTH that stimulates adenylyl cyclase]
direct Ca2+ signal evoked by the analogue alone (PTH1R [7]): directly evoked small Ca^2+ signals
Signalling to AC from internalized PTH1R (PTH1R [6]): Yes

VSEIQLMHNLGKHLNSMERVEWLRKKLQDVHNFVALG [PTH(2-38)]
EC50 (PTH1R [2]; [8]): 126 nM
EC50 (PTH1R [2]; PTH analogue 30 min): 50.1 nM
EC50 (PTH1R [3]; PTH analogue 1 min): 316 nM
EC50 (PTH1R [3]; PTH analogue 30 min): 63.1 nM

Reference: paper PMC4294780, “Sustained signalling by PTH modulates IP3 accumulation and IP3 receptors through cyclic AMP junctions” (Journal of Cell Science, 2015)
